The molecules below were run on HEK293 cells (assay: Preliminary screening as DNA vectors, GFP transfection of HEK293 cells). Details: amino lipid/DOPE liposome with 75 ng plasmid DNA (psin-EGFP-IRES-Puro); number of GFP-expressing cells divided by total nuclei (Hoechst).
Assay type: cell-based
How it was run: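 HEK293 cells in DMEM/10% FBS transfected with 75 ng EGFP plasmid per well complexed with amino lipid/DOPE liposomes in pH 5.6 sodium acetate. Hoechst nuclear stain added 20-24 h post-transfection, then cells cultured another 20-24 h. Confocal imaging gives GFP-positive cells as % of total nuclei.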

Structure (SMILES) | Absolute DNA transfection efficiency in HEK293 cells [%]
CCCCCCCCCCCNc1nc(NCCN2CCOCC2)nc(SCCCCCCCCCC)n1 [S10N11 D2] | 1.5
CCCCCCCCCCCCNc1nc(NCCCN2CCOCC2)nc(SCCCCCCCCCC)n1 [S10N12 D8] | 5.3
CCCCCCCCCCCCCCCCNc1nc(NCCN2CCN(C)CC2)nc(SCCCCCCCC)n1 [S8N16 D5] | 14.3
CCCCCCCCCCSc1nc(NCCCCCC)nc(NCCN(CC)CC)n1 [S10N6 D7] | 6.6
CCCCCCCCCCCCCCCCNc1nc(NCC2CCN(C)CC2)nc(SCCCCCCCC)n1 [S8N16 D10] | 13.4
CCCCCCCCCCCCCCCCCCSc1nc(NCCCCCCCCC)nc(NCCCN2CCOCC2)n1 [S18N9 D8] | 3.0
CCCCCCCCCCCCCCCCCCNc1nc(NCCCN2CCOCC2)nc(SCCCCCCCCCCCC)n1 [S12N18 D8] | 0.0
CCCCCCCCCCCCCCSc1nc(NCCCN2CCN(C)CC2)nc(SCCCCCC)n1 [S6S14 D9] | 4.1
CCCCCCCCCCCCCCCSc1nc(NCCN2CCOCC2)nc(SCCCCCC)n1 [S6S15 D2] | 8.4
CCCCCCCCCCCCCCCCSc1nc(NCCCCCCCCCCCCC)nc(NCCCN(C)C)n1 [S16N13 D6] | 1.2
CCCCCCCCCCCCCCCCSc1nc(NCCN2CCCCC2)nc(SCCCCCC)n1 [S6S16 D4] | 7.9
CCCCCCCCCCCCSc1nc(NCCCCCCCCCCC)nc(NCCN(CC)CC)n1 [S12N11 D7] | 5.8
CCCCCCCCCCCCCCCNc1nc(NCCN2CCCC2)nc(SCCCCCCCCCCCCCCC)n1 [S15N15 D3] | 0.8
CCCCCCCCCCSc1nc(NCCCN2CCOCC2)nc(SCCCCCC)n1 [S6S10 D8] | 0.0
CCCCCCCCCCCCSc1nc(NCCCCCCCCC)nc(NCCN2CCOCC2)n1 [S12N9 D2] | 0.0
CCCCCCCCCCCNc1nc(NCCN(CC)CC)nc(SCCCCCCC)n1 [S7N11 D7] | 9.6
CCCCCCCCCCCSc1nc(NCCCCCCCCC)nc(NCCN2CCCCC2)n1 [S11N9 D4] | 1.1
CCCCCCCCCCCCCCCCCCNc1nc(NCCN2CCN(C)CC2)nc(SCCCCCCCCCCCCCCCCCC)n1 [S18N18 D5] | 0.0
CCCCCCCCCCCNc1nc(NCCN2CCCC2)nc(SCCCCCCCCCC)n1 [S10N11 D3] | 12.6
CCCCCCCCCCCCCCCCCCNc1nc(NCCCN(C)C)nc(SCCCCCCCCCCC)n1 [S11N18 D6] | 21.7
CCCCCCCCCCCCCCCCSc1nc(NCCCCCCCCC)nc(NCCN2CCN(C)CC2)n1 [S16N9 D5] | 7.8
CCCCCCCSc1nc(NCCCN(C)C)nc(SCCCCCC)n1 [S6S7 D6] | 6.9
CCCCCCCCCCCCCCCCSc1nc(NCCCCCCCCCCCCC)nc(NCCN(C)C)n1 [S16N13 D1] | 1.2
CCCCCCCCCCSc1nc(NCCCCCC)nc(NCCCN(C)C)n1 [S10N6 D6] | 3.5
CCCCCCCCCCCCCNc1nc(NCCCN(C)C)nc(SCCCCCCCCCCC)n1 [S11N13 D6] | 13.6

Structure (SMILES) | Absolute DNA transfection efficiency in HEK293 cells [%]
CCCCCCCCCCCCCCCCNc1nc(NCCCN2CCN(C)CC2)nc(SCCCCCCCCCCCCCCC)n1 [S15N16 D9] | 0.2
CCCCCCCCCCCCCCCCCCSc1nc(NCCCCCCC)nc(NCCN2CCN(C)CC2)n1 [S18N7 D5] | 28.2
CCCCCCCCCCSc1nc(NCCCN(C)C)nc(SCCCCCCC)n1 [S7S10 D6] | 4.7
CCCCCCCCNc1nc(NCC2CCN(C)CC2)nc(SCCCCCCC)n1 [S7N8 D10] | 9.5
CCCCCCCCCCCCCNc1nc(NCCN2CCCC2)nc(SCCCCCCC)n1 [S7N13 D3] | 17.9
CCCCCCCCNc1nc(NCCCN2CCOCC2)nc(SCCCCCCCC)n1 [S8N8 D8] | 2.9
CCCCCCCCCCCNc1nc(NCCCN2CCOCC2)nc(SCCCCCC)n1 [S6N11 D8] | 1.5
CCCCCCCCCCCCN(CCCCCCCCCCCC)c1nc(NCCCN2CCOCC2)nc(SCCCCCCCCC)n1 [S9^2N12 D8] | 0.0
CCCCCCCCCCCCNc1nc(NCCCN(C)C)nc(SCCCCCCCCCCC)n1 [S11N12 D6] | 18.8
CCCCCCCCCCCNc1nc(NCCN2CCOCC2)nc(SCCCCCCCCCCC)n1 [S11N11 D2] | 6.3
CCCCCCCCCCCNc1nc(NCCCN2CCOCC2)nc(SCCCCCCCCCC)n1 [S10N11 D8] | 3.8
CCCCCCCCCCCCCCCCCCNc1nc(NCCCN2CCN(C)CC2)nc(SCCCCCC)n1 [S6N18 D9] | 14.1
CCCCCCCCCCCCSc1nc(NCCCCCCC)nc(NCCCN2CCOCC2)n1 [S12N7 D8] | 0.3
CCCCCCCCCCCCCCCCSc1nc(NCCCCCCCC)nc(NCCN2CCOCC2)n1 [S16N8 D2] | 14.6
CCCCCCCCCCCCCCCCCCNc1nc(NCCN(C)C)nc(SCCCCCC)n1 [S6N18 D1] | 21.0
CCCCCCCCCCCCSc1nc(NCCCCCCCCCCC)nc(NCCN(C)C)n1 [S12N11 D1] | 3.2
CCCCCCCCCCCSc1nc(NCCCCCC)nc(NCCN2CCCCC2)n1 [S11N6 D4] | 29.0
CCCCCCCCCCCCCCSc1nc(NCCCCCCCC)nc(NCCN2CCCC2)n1 [S14N8 D3] | 24.4
CCCCCCCCCCCCN(CCCCCCCCCCCC)c1nc(NCCCN2CCN(C)CC2)nc(SCCCCCCCCCC)n1 [S10^2N12 D9] | 0.5
CCCCCCCCCSc1nc(NCCCCCCC)nc(NCCCN2CCOCC2)n1 [S9N7 D8] | 6.1
CCCCCCCCCCCCSc1nc(NCCCCCC)nc(NCCN2CCCC2)n1 [S12N6 D3] | 0.0
CCCCCCCCCCCCCCCCSc1nc(NCCCN2CCN(C)CC2)nc(SCCCCCCC)n1 [S7S16 D9] | 2.3
CCCCCCCSc1nc(NCCCN2CCN(C)CC2)nc(SCCCCCCC)n1 [S7S7 D9] | 7.9
CCCCCCCCCCCCCCCCNc1nc(NCCCN(C)C)nc(SCCCCCCCCCCC)n1 [S11N16 D6] | 5.7
CCCCCCCCCCCCCCCCSc1nc(NCCCCCCCCCCCCCCC)nc(NCCN2CCCCC2)n1 [S16N15 D4] | 2.6

Structure (SMILES) | Absolute DNA transfection efficiency in HEK293 cells [%]
CCCCCCCCCSc1nc(NCCCCCCC)nc(NCCN2CCCC2)n1 [S9N7 D3] | 27.3
CCCCCCCCCCSc1nc(NCCCCCCCC)nc(NCCN2CCN(C)CC2)n1 [S10N8 D5] | 13.2
CCCCCCCCCCCCCCCSc1nc(NCCCCCCCCC)nc(NCCCN2CCOCC2)n1 [S15N9 D8] | 10.1
CCCCCCCCCCCCCNc1nc(NCC2CCN(C)CC2)nc(SCCCCCCC)n1 [S7N13 D10] | 54.2
CCCCCCCCCCCCN(CCCCCCCCCCCC)c1nc(NCC2CCN(C)CC2)nc(SCCCCCCCCCCC)n1 [S11^2N12 D10] | 0.0
CCCCCCCCCCCCCNc1nc(NCCCN2CCOCC2)nc(SCCCCCCCCCCC)n1 [S11N13 D8] | 0.9
CCCCCCCCCNc1nc(NCC2CCN(C)CC2)nc(SCCCCCCCCC)n1 [S9N9 D10] | 34.5
CCCCCCCCCCCCCCCCCCNc1nc(NCCN(CC)CC)nc(SCCCCCCCCCCCCCC)n1 [S14N18 D7] | 1.2
CCCCCCCSc1nc(NCCCN2CCN(C)CC2)nc(SCCCCCC)n1 [S6S7 D9] | 7.5
CCCCCCCCCCSc1nc(NCCCCCCC)nc(NCC2CCN(C)CC2)n1 [S10N7 D10] | 1.1
CCCCCCCCCCCCNc1nc(NCCN(CC)CC)nc(SCCCCCC)n1 [S6N12 D7] | 2.2
CCCCCCCCCCCCSc1nc(NCCN2CCCC2)nc(SCCCCCC)n1 [S6S12 D3] | 4.3
CCCCCCCCCCCCN(CCCCCCCCCCCC)c1nc(NCCN2CCOCC2)nc(SCCCCCCC)n1 [S7^2N12 D2] | 0.0
CCCCCCCCCCCCCCCCNc1nc(NCCN2CCCCC2)nc(SCCCCCCCCCCCCCC)n1 [S14N16 D4] | 1.9
CCCCCCCNc1nc(NCCN2CCCC2)nc(SCCCCCCC)n1 [S7N7 D3] | 9.2
CCCCCCCNc1nc(NCCCN(C)C)nc(SCCCCCC)n1 [S6N7 D6] | 0.4
CCCCCCCCCSc1nc(NCCCCCC)nc(NCC2CCN(C)CC2)n1 [S9N6 D10] | 9.7
CCCCCCCCCCCCSc1nc(NCCCN2CCOCC2)nc(SCCCCCCC)n1 [S7S12 D8] | 10.9
CCCCCCCCCCCCCCSc1nc(NCCCCCCCCC)nc(NCCCN(C)C)n1 [S14N9 D6] | 43.9
CCCCCCCCCCCCCCCSc1nc(NCCN2CCCC2)nc(N(CCCCCCCCCCCC)CCCCCCCCCCCC)n1 [S15^2N12 D3] | 0.1
CCCCCCCCCCCCSc1nc(NCCCCCCCC)nc(NCCN(C)C)n1 [S12N8 D1] | 6.0
CCCCCCCCCCCCCCCCCCNc1nc(NCCN(C)C)nc(SCCCCCCCC)n1 [S8N18 D1] | 4.8
CCCCCCCCCCCCCCCCSc1nc(NCCCCCCCCCCCCCCC)nc(NCCCN(C)C)n1 [S16N15 D6] | 0.0

— patent US20230123334A1, “AMINO LIPID COMPOUND, PREPARATION METHOD THEREFOR, AND APPLICATION THEREOF” (SHENZHEN SHENXIN BIOTECHNOLOGY CO., LTD., priority 2020, published 2023)
